Test results as given in patent US10344024B2, “Compounds as ROR gamma modulators” (Glenmark Pharmaceuticals S.A., priority 2015, dated 2019).

Molecular target: T1, GST-tagged ROR gamma ligand binding domain (LBD) (Homo sapiens, UniProt P51449)
T1 construct: purchased Invitrogen
T1 sequence (P51449 269-508 limits assumed): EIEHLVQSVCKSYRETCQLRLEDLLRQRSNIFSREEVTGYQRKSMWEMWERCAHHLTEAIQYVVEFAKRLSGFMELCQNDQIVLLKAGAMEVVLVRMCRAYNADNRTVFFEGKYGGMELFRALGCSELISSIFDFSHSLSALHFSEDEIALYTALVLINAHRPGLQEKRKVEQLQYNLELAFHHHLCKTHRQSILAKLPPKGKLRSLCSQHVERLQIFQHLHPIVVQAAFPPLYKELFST
Assay: TR-FRET assay for ROR gamma (LanthaScreen co-activator peptide recruitment)
Assay type: biochemical
Settings: for inhibition at 1 µM: compound concentration 1 μM; for inhibition at 1 µM / inhibition at 10 µM: TR-FRET ratio 520/495, percent of control; for inhibition at 10 µM: compound concentration 10 μM; for IC50: from dose response curve, nonlinear regression, read-out: IC50 range
From the text: The compounds described herein were screened for ROR gamma modulator activity using the TR-FRET assay (LanthaScreen™ available from Invitrogen of Carlsbad, Calif.) as described in JBC 2011, 286, 26: 22707-10; and Drug Metabolism and Disposition 2009, 37, 10: 2069-78.
Binding of the co-activator peptide, causes an increase in the TR-FRET signal while binding of an antagonist decreases the recruitment of the co-activator peptide, causing a decrease in the TR-FRET signal compared to control with no compound. The assay was performed using a two-step procedure, pre-incubation step with the compound followed by the detection step on addition of the anti-GST tagged terbium (Tb) and fluorescein tagged fluorophores as the acceptor.
Test compounds or reference compounds such as T0901317 (Calbiochem) were dissolved in dimethylsulfoxide (DMSO) to prepare 10.0 mM stock solutions and diluted to the desired concentration. The final concentration of DMSO in the reaction was 4% (v/v). The assay mixture was prepared by mixing 10 nM of the GST-tagged ROR gamma ligand binding domain (LBD) in the assay buffer containing 25 mM HEPES (pH 7.4), 100 mM NaCl, 5 mM DTT and 0.01% BSA with or without the desired concentration of the compound. The reaction was incubated at 22° C. for 1 hour. The pre-incubation step was terminated by addition of the detection mixture containing 300 nM Fluorescein-D22 co-activator peptide and 10 nM lantha screen Tb-anti GST antibody into the reaction mixture.
After shaking for 5 minutes the reaction was further incubated for 1 hour at room temperature and read at 4° C. on an Infinite F500 reader as per the kit instructions (Invitrogen). The inhibition of test compound was calculated based on the TR-FRET ratio of 520/495. The activity was calculated as a percent of control reaction. IC50 values were calculated from dose response curve by nonlinear regression analysis using GraphPad Prism software.

CCc1ccccc1-c1nccnc1-c1ccc(NC(=O)Cc2ccc(C(F)(F)[C@@H](C)O)cc2)cc1 [Example 53, (R)-2-(4-(1,1-difluoro-2-hydroxypropyl)phenyl)-N-(4-(3-(2-ethylphenyl)pyrazin-2-yl)phenyl)acetamide]
inhibition at 1 µM: 70.5% | inhibition at 10 µM: 77% | IC50: < 0.05 µM

CC(O)C(F)(F)c1ccc(CC(=O)Nc2ccc(-c3nccnc3N3CCN(C(=O)C4CC4)CC3)cc2)cc1 (stereo not drawn) [Example 54, N-(4-(3-(4-(Cyclopropanecarbonyl)piperazin-1-yl)pyrazin-2-yl)phenyl)-2-(4-(1,1-difluoro-2-hydroxypropyl)phenyl)acetamide]
inhibition at 1 µM: 23.1% | inhibition at 10 µM: 42.4%

CCC(F)(F)c1ccc(CC(=O)Nc2ccc(-c3nccnc3N(C)c3ccc(Cl)cc3)cc2)cc1 [Example 55, N-(4-(3-((4-Chlorophenyl)(methyl)amino)pyrazin-2-yl)phenyl)-2-(4-(1,1-difluoropropyl)phenyl)acetamide]
inhibition at 1 µM: 56.5% | inhibition at 10 µM: 64.6%

CCC(F)(F)c1ccc(CC(=O)Nc2ccc(-c3nccnc3N(C)Cc3ccccc3)cc2)cc1 [Example 56, N-(4-(3-(Benzyl(methyl)amino)pyrazin-2-yl)phenyl)-2-(4-(1,1-difluoropropyl)phenyl)acetamide]
inhibition at 1 µM: 73.4% | inhibition at 10 µM: 85.8% | IC50: 0.1 to 0.5 µM

CCC(F)(F)c1ccc(CC(=O)Nc2ccc(-c3nccnc3NCc3ccccc3)cc2)cc1 [Example 57, N-(4-(3-(Benzylamino)pyrazin-2-yl)phenyl)-2-(4-(1,1-difluoropropyl)phenyl)acetamide]
inhibition at 1 µM: 69.4% | inhibition at 10 µM: 85.2%

CCC(F)(F)c1ccc(CC(=O)Nc2ccc(-c3nccnc3NC(C)c3ccccc3)cc2)cc1 (stereo not drawn) [Example 58, 2-(4-(1,1-Difluoropropyl)phenyl)-N-(4-(3-((1-phenylethyl)amino)pyrazin-2-yl)phenyl)acetamide]
inhibition at 1 µM: 80.3% | inhibition at 10 µM: 90.7% | IC50: 0.1 to 0.5 µM

CCC(F)(F)c1ccc(CC(=O)Nc2ccc(-c3nccnc3N[C@H](C)c3ccccc3)cc2)cc1 [Example 59, (R)-2-(4-(1,1-Difluoropropyl)phenyl)-N-(4-(3-((1-phenylethyl)amino)pyrazin-2-yl)phenyl)acetamide]
inhibition at 1 µM: 58.6% | inhibition at 10 µM: 79.7%

CCC(F)(F)c1ccc(CC(=O)Nc2ccc(-c3nccnc3N(C)[C@H](C)c3ccccc3)cc2)cc1 [Example 60, (R)-2-(4-(1,1-Difluoropropyl)phenyl)-N-(4-(3-(methyl(1-phenylethyl)amino)pyrazin-2-yl)phenyl)acetamide]
inhibition at 1 µM: 69.6% | inhibition at 10 µM: 83% | IC50: 0.1 to 0.5 µM

CCC(F)(F)c1ccc(CC(=O)Nc2ccc(-c3nccnc3N[C@@H](C)c3ccccc3)cc2)cc1 [Example 61, (S)-2-(4-(1,1-Difluoropropyl)phenyl)-N-(4-(3-((1-phenylethyl)amino)pyrazin-2-yl)phenyl)acetamide]
inhibition at 1 µM: 84.2% | inhibition at 10 µM: 91.4% | IC50: 0.05 to 0.1 µM

CCC(F)(F)c1ccc(CC(=O)Nc2ccc(-c3nccnc3N(C)[C@@H](C)c3ccccc3)cc2)cc1 [Example 62, (S)-2-(4-(1,1-Difluoropropyl)phenyl)-N-(4-(3-(methyl(1-phenylethyl)amino)pyrazin-2-yl)phenyl)acetamide]
inhibition at 1 µM: 65.6% | inhibition at 10 µM: 84.8%

CCC(F)(F)c1ccc(CC(=O)Nc2ccc(-c3nccnc3N[C@@H](C)c3ccc(Cl)cc3)cc2)cc1 [Example 63, (S)-N-(4-(3-((1-(4-Chlorophenyl)ethyl)amino)pyrazin-2-yl)phenyl)-2-(4-(1,1-difluoropropyl)phenyl)acetamide]
inhibition at 1 µM: 86.8% | inhibition at 10 µM: 91.2% | IC50: 0.05 to 0.1 µM

CCC(F)(F)c1ccc(CC(=O)Nc2ccc(-c3nccnc3N[C@@H](C)c3cccc(Cl)c3)cc2)cc1 [Example 64, (S)-N-(4-(3-((1-(3-Chlorophenyl)ethyl)amino)pyrazin-2-yl)phenyl)-2-(4-(1,1-difluoropropyl)phenyl)acetamide]
inhibition at 1 µM: 76.2% | inhibition at 10 µM: 84.9% | IC50: 0.1 to 0.5 µM

CCC(F)(F)c1ccc(CC(=O)Nc2ccc(-c3nccnc3N(C)[C@@H](C)c3ccc(Cl)cc3)cc2)cc1 [Example 65, (S)-N-(4-(3-((1-(4-Chlorophenyl)ethyl)(methyl)amino)pyrazin-2-yl)phenyl)-2-(4-(1,1-difluoropropyl)phenyl)acetamide]
inhibition at 1 µM: 76.1% | inhibition at 10 µM: 83.2% | IC50: 0.1 to 0.5 µM

CCC(F)(F)c1ccc(CC(=O)Nc2ccc(-c3nccnc3N[C@@H](C)c3ccccc3Cl)cc2)cc1 [Example 66, (S)-N-(4-(3-((1-(2-Chlorophenyl)ethyl)amino)pyrazin-2-yl)phenyl)-2-(4-(1,1-difluoropropyl)phenyl)acetamide]
inhibition at 1 µM: 88.4% | inhibition at 10 µM: 90.2% | IC50: < 0.05 µM

CCC(F)(F)c1ccc(CC(=O)Nc2ccc(-c3nccnc3N[C@@H](C)c3ccc(F)cc3C)cc2)cc1 [Example 67, (S)-2-(4-(1,1-Difluoropropyl)phenyl)-N-(4-(3-((1-(4-fluoro-2-methylphenyl)ethyl)amino)pyrazin-2-yl)phenyl)acetamide]
inhibition at 1 µM: 87.9% | inhibition at 10 µM: 92.4% | IC50: < 0.05 µM

CC(O)C(F)(F)c1ccc(CC(=O)Nc2ccc(-c3nccnc3N[C@@H](C)c3ccccc3Cl)cc2)cc1 (stereo partly drawn) [Example 68, N-(4-(3-(((S)-1-(2-Chlorophenyl)ethyl)amino)pyrazin-2-yl)phenyl)-2-(4-(1,1-difluoro-2-hydroxypropyl)phenyl)acetamide]
inhibition at 1 µM: 93.5% | inhibition at 10 µM: 96.9% | IC50: < 0.05 µM

CCC(F)(F)c1ccc(CC(=O)Nc2ccc(-c3nccnc3N[C@@H](C)c3ccc(C)cc3C)cc2)cc1 [Example 69, (S)-2-(4-(1,1-Difluoropropyl)phenyl)-N-(4-(3-((1-(2,4-dimethylphenyl)ethyl)amino)pyrazin-2-yl)phenyl)acetamide]
inhibition at 1 µM: 97% | inhibition at 10 µM: 97.1% | IC50: < 0.05 µM

CCC(F)(F)c1ccc(CC(=O)Nc2ccc(-c3nccnc3N[C@@H](C)c3ccc(F)cc3Cl)cc2)cc1 [Example 70, (S)-N-(4-(3-((1-(2-Chloro-4-fluorophenyl)ethyl)amino)pyrazin-2-yl)phenyl)-2-(4-(1,1-difluoropropyl)phenyl)acetamide]
inhibition at 1 µM: 94.1% | inhibition at 10 µM: 93.8% | IC50: < 0.05 µM

CC(O)C(F)(F)c1ccc(CC(=O)Nc2ccc(-c3nccnc3NCC3CCCCC3)cc2)cc1 (stereo not drawn) [Example 71, N-(4-(3-((Cyclohexylmethyl)amino)pyrazin-2-yl)phenyl)-2-(4-(1,1-difluoro-2-hydroxypropyl)phenyl)acetamide]
inhibition at 1 µM: 20.5% | inhibition at 10 µM: 73.7%

CC(O)C(F)(F)c1ccc(CC(=O)Nc2ccc(-c3nccnc3N[C@@H](C)c3ccc(Cl)cc3)cc2)cc1 (stereo partly drawn) [Example 72, N-(4-(3-(((S)-1-(4-Chlorophenyl)ethyl)amino)pyrazin-2-yl)phenyl)-2-(4-(1,1-difluoro-2-hydroxypropyl)phenyl)acetamide]
inhibition at 1 µM: 86.9% | inhibition at 10 µM: 93.4% | IC50: < 0.05 µM

CC(O)C(F)(F)c1ccc(CC(=O)Nc2ccc(-c3nccnc3N[C@@H](C)c3ccccc3Cl)cc2F)cc1 (stereo partly drawn) [Example 73, N-(4-(3-(((S)-1-(2-Chlorophenyl)ethyl)amino)pyrazin-2-yl)-2-fluorophenyl)-2-(4-(1,1-difluoro-2-hydroxypropyl)phenyl)acetamide]
inhibition at 1 µM: 78.5% | inhibition at 10 µM: 89.2% | IC50: 0.1 to 0.5 µM

CC(O)C(F)(F)c1ccc(CC(=O)Nc2ccc(-c3nccnc3N[C@@H](C)c3ccccc3Cl)c(F)c2)cc1 (stereo partly drawn) [Example 74, N-(4-(3-(((S)-1-(2-Chlorophenyl)ethyl)amino)pyrazin-2-yl)-3-fluorophenyl)-2-(4-(1,1-difluoro-2-hydroxypropyl)phenyl)acetamide]
inhibition at 1 µM: 79.2% | inhibition at 10 µM: 89.9% | IC50: 0.05 to 0.1 µM

CCC(F)(F)c1ccc(CC(=O)Nc2ccc(-c3nccnc3OCc3ccccc3)cc2)cc1 [Example 75, N-(4-(3-(Benzyloxy)pyrazin-2-yl)phenyl)-2-(4-(1,1-difluoropropyl)phenyl)acetamide]
inhibition at 1 µM: 75.7% | inhibition at 10 µM: 84.2% | IC50: 0.05 to 0.1 µM
